Laboratory results reported in patent US11414424B2, “Cardiac sarcomere inhibitors” (Cytokinetics, Inc., priority 2018, dated 2022).

What follows are compounds tested on bovine cardiac myofibrils (assay: Myofibril assay: PK/LDH-coupled steady-state ATPase activity of skinned bovine cardiac myofibrils). Conditions: Ca2+ activating to 75% of maximal rate.
Type: biochemical
Method in brief: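 Steady-state ATPase of detergent-skinned bovine left-ventricular myofibrils (1 mg/mL), PK/LDH-coupled NADH read at 340 nm, in PIPES/MgCl2 buffer pH 6.8 with 50 μM ATP, 0.6 mM EGTA and CaCl2 set for 50% or 75% activation. Inhibition of activity measured.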

Compared with `CC(=O)N1CC2(C1)C(=O)N(c1ccc(C#N)cc1F)CC(=O)N2Cc1ccc(F)cc1` [Compound 176, 4-(2-acetyl-5-(4-fluoro-benzyl)-6,9-dioxo-2,5,8-triazaspiro[3.5]nonan-8-yl)-3-fluorobenzonitrile], `CC(=O)N1CCC2(C1)C(=O)N(c1ccc(C#N)cc1F)CC(=O)N2Cc1ccc(Cl)cc1` (stereo not drawn) [Compound 205, 4-(2-acetyl-6-(4-chlorobenzyl)-7,10-dioxo-2,6,9-triazaspiro[4.5]decan-9-yl)-3-fluorobenzonitrile] is 12-fold lower in “CDMF75 IC15” value: 8500 nM for the first, 700 nM for the second.

First: CNC(=O)N1CC2(C1)C(=O)N(c1ccc3oc(=O)ccc3c1)CC(=O)N2Cc1ccc(C(F)(F)F)cc1 [Compound 177, N-methyl-6,9-dioxo-8-(2-oxo-2H-chromen-6-yl)-5-(4-(trifluoromethyl)benzyl)-2,5,8-triazaspiro[3.5]-nonane-2-carboxamide]
Second: CNC(=O)N1CC2(C1)C(=O)N(c1ccc3oc(=O)ccc3c1)CC(=O)N2Cc1ccc(C2(C(F)(F)F)N=N2)cc1 [Compound 181, N-methyl-6,9-dioxo-8-(2-oxo-2H-chromen-6-yl)-5-(4-(3-(trifluoromethyl)-3H-diazirin-3-yl)benzyl)-2,5,8-triazaspiro[3.5]-nonane-2-carboxamide]
The “CDMF75 IC15” value of the first is 3.4-fold lower: 1800 nM for the first, 6200 nM for the second.

Going from `C#Cc1ccc(N2CC(=O)N(Cc3ccc(C4(C(F)(F)F)N=N4)cc3)C3(CN(C(=O)NC)C3)C2=O)c(F)c1` [Compound 178, 8-(4-ethynyl-2-fluoro-phenyl)-N-methyl-6,9-dioxo-5-(4-(3-(trifluoromethyl)-3H-diazirin-3-yl)benzyl)-2,5,8-triazaspiro[3.5]nonane-2-carboxamide] to `N#Cc1ccc(N2CC(=O)N(Cc3ccc(C(F)(F)F)cc3)C3(CN(C(N)=O)C3)C2=O)c(F)c1` [Compound 204, 8-(4-cyano-2-fluorophenyl)-6,9-dioxo-5-(4-(trifluoromethyl)benzyl)-2,5,8-triazaspiro[3.5]nonane-2-carboxamide], the “CDMF75 IC15” value falls from 800 nM to 200 nM (4-fold).

First: N#Cc1ccc(N2CC(=O)N(Cc3ccc(C(F)(F)F)cc3)C3(CN(C(=O)C4CCC4)C3)C2=O)c(F)c1 [Compound 180, 4-(2-(cyclobutanecarbonyl)-6,9-dioxo-5-(4-(trifluoromethyl)benzyl)-2,5,8-triazaspiro[3.5]nonan-8-yl)-3-fluorobenzonitrile]
Second: N#Cc1ccc(N2CC(=O)N(Cc3ccc(C(F)(F)F)cc3)C3(CN(C(=O)C4CC4)C3)C2=O)c(F)c1 [Compound 203, 4-(2-(cyclopropanecarbonyl)-6,9-dioxo-5-(4-(trifluoromethyl)benzyl)-2,5,8-triazaspiro[3.5]nonan-8-yl)-3-fluorobenzonitrile]
The “CDMF75 IC15” value of the first is 2.7-fold higher: 1600 nM for the first, 600 nM for the second.

First: CC(=O)N1CC2(C1)C(=O)N(c1ncc(Cl)cc1F)CC(=O)N2Cc1ccc(Cl)cc1 [Compound 182, 2-acetyl-8-(5-chloro-3-fluoropyridin-2-yl)-5-(4-chlorobenzyl)-2,5,8-triazaspiro[3.5]nonane-6,9-dione]
Second: COC(=O)N1CC[C@]2(C1)C(=O)N(c1ccc(C#N)cc1F)CC(=O)N2Cc1ccc(Cl)cc1 [Compound 211, methyl (S)-6-(4-chlorobenzyl)-9-(4-cyano-2-fluorophenyl)-7,10-dioxo-2,6,9-triazaspiro-[4.5]decane-2-carboxylate]
The “CDMF75 IC15” value of the first is 7.2-fold higher: 2900 nM for the first, 400 nM for the second.

`CNC(=O)N1CCC2(C1)C(=O)N(c1ccc(C#N)cc1)CC(=O)N2Cc1ccc(C(F)(F)F)cc1` (stereo not drawn) [Compound 183, 9-(4-cyanophenyl)-N-methyl-7,10-dioxo-6-(4-(trifluoromethyl)benzyl)-2,6,9-triazaspiro[4.5]-decane-2-carboxamide] and `CNC(=O)N1CCC2(C1)C(=O)N(c1ccc(C#N)cc1)CC(=O)N2Cc1ccc(Cl)cc1` (stereo not drawn) [Compound 185, 6-(4-chlorobenzyl)-9-(4-cyanophenyl)-N-methyl-7,10-dioxo-2,6,9-triazaspiro[4.5]decane-2-carboxamide] are within 1.5-fold of each other in “CDMF75 IC15” value: 4600 nM for the first, 3200 nM for the second.

First: CNC(=O)N1CCC2(C1)C(=O)N(c1ccc(C#N)nc1)CC(=O)N2Cc1ccc(C(F)(F)F)cc1 (stereo not drawn) [Compound 184, 9-(6-cyanopyridin-3-yl)-N-methyl-7,10-dioxo-6-(4-(trifluoromethyl)benzyl)-2,6,9-triazaspiro[4.5]-decane-2-carboxamide]
Second: CC(=O)N1CC[C@]2(C1)C(=O)N(c1ccc(C#N)cc1F)CC(=O)N2Cc1ccc(C(F)(F)F)cc1 [Compound 209, (S)-4-(2-acetyl-7,10-dioxo-6-(4-(trifluoromethyl)-benzyl)-2,6,9-triazaspiro-[4.5]decan-9-yl)-3-fluorobenzonitrile]
The “CDMF75 IC15” value of the first is 51-fold higher: 25500 nM for the first, 500 nM for the second.

`CC(=O)N1CC2(C1)C(=O)N(c1ccc(C#N)cc1)CC(=O)N2Cc1ccc(C(F)(F)F)cc1` [Compound 186, 4-(2-acetyl-6,9-dioxo-5-(4-(trifluoromethyl)benzyl)-2,5,8-triazaspiro[3.5]nonan-8-yl)benzonitrile] and `CCC(=O)N1CC2(C1)C(=O)N(c1ccc(C#N)cc1)CC(=O)N2Cc1ccc(C(F)(F)F)cc1` [Compound 187, 4-(6,9-dioxo-2-propionyl-5-(4-(trifluoromethyl)benzyl)-2,5,8-triazaspiro[3.5]nonan-8-yl)benzonitrile] are within 1.5-fold of each other in “CDMF75 IC15” value: 15800 nM for the first, 15900 nM for the second.

Compared with `COC(=O)N1CC2(C1)C(=O)N(c1ccc(C#N)cc1)CC(=O)N2Cc1ccc(C(F)(F)F)cc1` [Compound 188, methyl 8-(4-cyanophenyl)-6,9-dioxo-5-(4-(trifluoromethyl)benzyl)-2,5,8-triazaspiro[3.5]-nonane-2-carboxylate], `CNC(=S)N1CC2(C1)C(=O)N(c1ccc(C#N)cc1)CC(=O)N2Cc1ccc(C(F)(F)F)cc1` [Compound 189, 8-(4-cyanophenyl)-N-methyl-6,9-dioxo-5-(4-(trifluoromethyl)benzyl)-2,5,8-triazaspiro[3.5]-nonane-2-carbothioamide] is 1.9-fold lower in “CDMF75 IC15” value: 2600 nM for the first, 1400 nM for the second.

Compared with `N#Cc1ccc(N2CC(=O)N(Cc3ccc(C(F)(F)F)cc3)C3(CN(C=O)C3)C2=O)cc1` [Compound 190, 4-(2-formyl-6,9-dioxo-5-(4-(trifluoromethyl)benzyl)-2,5,8-triazaspiro[3.5]nonan-8-yl)benzonitrile], `N#Cc1ccc(N2CC(=O)N(Cc3ccc(C(F)(F)F)cc3)C3(CN(CC(F)F)C3)C2=O)cc1` [Compound 191, 4-(2-(2,2-difluoroethyl)-6,9-dioxo-5-(4-(trifluoromethyl)benzyl)-2,5,8-triazaspiro[3.5]nonan-8-yl)benzonitrile] is 3.6-fold higher in “CDMF75 IC15” value: 4000 nM for the first, 14300 nM for the second.

Going from `N#Cc1ccc(N2CC(=O)N(Cc3ccc(C(F)(F)F)cc3)C3(CN(c4ccc(C#N)cn4)C3)C2=O)cc1` [Compound 192, 6-(8-(4-cyanophenyl)-6,9-dioxo-5-(4-(trifluoromethyl)benzyl)-2,5,8-triazaspiro[3.5]nonan-2-yl)nicotinonitrile] to `N#Cc1ccc(N2CC(=O)N(Cc3ccc(C(F)(F)F)cc3)C3(CN(C=O)C3)C2=O)cc1F` [Compound 194, 2-fluoro-4-(2-formyl-6,9-dioxo-5-(4-(trifluoromethyl)benzyl)-2,5,8-triazaspiro[3.5]nonan-8-yl)benzonitrile], the “CDMF75 IC15” value falls from 600 nM to 400 nM (1.5-fold).

Going from `N#Cc1ccc(N2CC(=O)N(Cc3ccc(C(F)(F)F)cc3)C3(CN(CC(F)F)C3)C2=O)cc1F` [Compound 193, 4-(2-(2,2-difluoroethyl)-6,9-dioxo-5-(4-(trifluoromethyl)benzyl)-2,5,8-triazaspiro[3.5]nonan-8-yl)-2-fluorobenzonitrile] to `CC(=O)N1CC2(C1)C(=O)N(c1ccc(C#N)c(F)c1)CC(=O)N2Cc1ccc(C(F)(F)F)cc1` [Compound 197, 4-(2-acetyl-6,9-dioxo-5-(4-(trifluoromethyl)benzyl)-2,5,8-triazaspiro[3.5]nonan-8-yl)-2-fluorobenzonitrile], the “CDMF75 IC15” value rises from 1700 nM to 2700 nM (1.6-fold).

`CNC(=S)N1CC2(C1)C(=O)N(c1ccc(C#N)c(F)c1)CC(=O)N2Cc1ccc(C(F)(F)F)cc1` [Compound 195, 8-(4-cyano-3-fluorophenyl)-N-methyl-6,9-dioxo-5-(4-(trifluoromethyl)benzyl)-2,5,8-triazaspiro[3.5]nonane-2-carbothioamide] and `COC(=O)N1CC2(C1)C(=O)N(c1ccc(C#N)c(F)c1)CC(=O)N2Cc1ccc(C(F)(F)F)cc1` [Compound 196, methyl 8-(4-cyano-3-fluorophenyl)-6,9-dioxo-5-(4-(trifluoromethyl)benzyl)-2,5,8-triazaspiro[3.5]nonane-2-carboxylate] are the same in “CDMF75 IC15” value: 400 nM for the first, 400 nM for the second.

Compared with `N#Cc1ccc(N2CC(=O)N(Cc3ccc(C(F)(F)F)cc3)C3(CN(C(N)=O)C3)C2=O)cc1F` [Compound 198, 8-(4-cyano-3-fluorophenyl)-6,9-dioxo-5-(4-(trifluoromethyl)benzyl)-2,5,8-triazaspiro[3.5]nonane-2-carboxamide], `CN(C)C(=O)N1CC2(C1)C(=O)N(c1ccc(C#N)c(F)c1)CC(=O)N2Cc1ccc(C(F)(F)F)cc1` [Compound 201, 8-(4-cyano-3-fluorophenyl)-N,N-dimethyl-6,9-dioxo-5-(4-(trifluoromethyl)benzyl)-2,5,8-triazaspiro[3.5]nonane-2-carboxamide] is 10-fold higher in “CDMF75 IC15” value: 500 nM for the first, 5100 nM for the second.

Compared with `N#Cc1ccc(N2CC(=O)N(Cc3ccc(C(F)(F)F)cc3)C3(CN(C(=O)NC4CC4)C3)C2=O)cc1F` [Compound 199, 8-(4-cyano-3-fluorophenyl)-N-cyclopropyl-6,9-dioxo-5-(4-(trifluoromethyl)benzyl)-2,5,8-triazaspiro[3.5]nonane-2-carboxamide], `Cn1cc(NC(=O)N2CC3(C2)C(=O)N(c2ccc(C#N)c(F)c2)CC(=O)N3Cc2ccc(C(F)(F)F)cc2)cn1` [Compound 200, 8-(4-cyano-3-fluorophenyl)-N-(1-methyl-1H-pyrazol-4-yl)-6,9-dioxo-5-(4-(trifluoromethyl)benzyl)-2,5,8-triazaspiro[3.5]nonane-2-carboxamide] is 2.6-fold lower in “CDMF75 IC15” value: 2300 nM for the first, 900 nM for the second.
